Tests used:
Assay in all cases: Fractional growth, 72 h seliciclib
Type in all cases: cell-based, human
[1] = test system: HTC-C3; settings: HTC-C3 (Thyroid), 15 μM seliciclib
From the text: (§1) A total of 270 human cancer cell lines from diverse cancer histopathologic types were investigated.

[2] = test system: JHU-028EP; settings: JHU-028EP (Head & Neck), 15 μM seliciclib
From the text: as §1

[3] = test system: NCI-H1435; settings: NCI-H1435 (Lung: NSCLC), 15 μM seliciclib
From the text: as §1

[4] = test system: CAL-33; settings: CAL-33 (Head & Neck), 15 μM seliciclib
From the text: as §1

[5] = test system: BEN; settings: BEN (Lung: NSCLC), 15 μM seliciclib
From the text: as §1

[6] = test system: KP-1N; settings: KP-1N (Pancreas), 15 μM seliciclib
From the text: as §1

[7] = test system: DoTc2 4510; settings: DoTc2 4510 (Cervix), 15 μM seliciclib
From the text: as §1

[8] = test system: Daoy; settings: Daoy (Brain), 15 μM seliciclib
From the text: as §1

[9] = test system: RPMI 2650; settings: RPMI 2650 (Head & Neck), 15 μM seliciclib
From the text: as §1

[10] = test system: HuH-7; settings: HuH-7 (Liver), 15 μM seliciclib
From the text: as §1

[11] = test system: LU65C; settings: LU65C (Lung: NSCLC), 15 μM seliciclib
From the text: as §1

[12] = test system: NCI-H522; settings: NCI-H522 (Lung: NSCLC), 15 μM seliciclib
From the text: as §1

[13] = test system: M-14; settings: M-14 (Skin), 15 μM seliciclib
From the text: as §1

[14] = test system: MIA PaCa-2; settings: MIA PaCa-2 (Pancreas), 15 μM seliciclib
From the text: as §1

[15] = test system: B-CPAP; settings: B-CPAP (Thyroid), 15 μM seliciclib
From the text: as §1

[16] = test system: CHSA8926; settings: CHSA8926 (Bone), 15 μM seliciclib
From the text: as §1

[17] = test system: LU99C; settings: LU99C (Lung: NSCLC), 15 μM seliciclib
From the text: as §1

[18] = test system: NH-6; settings: NH-6 (Kidney), 15 μM seliciclib
From the text: as §1

[19] = test system: CAL-12T; settings: CAL-12T (Lung: NSCLC), 15 μM seliciclib
From the text: as §1

[20] = test system: PCI-6A; settings: PCI-6A (Head & Neck), 15 μM seliciclib
From the text: as §1

[21] = test system: A549; settings: A549 (Lung: NSCLC), 15 μM seliciclib
From the text: as §1

[22] = test system: NCI-H1915; settings: NCI-H1915 (Lung: NSCLC), 15 μM seliciclib
From the text: as §1

[23] = test system: SW 48; settings: SW 48 (Intestine), 15 μM seliciclib
From the text: as §1

[24] = test system: C-4 I; settings: C-4 I (Cervix), 15 μM seliciclib
From the text: as §1

[25] = test system: HUP-T3; settings: HUP-T3 (Pancreas), 15 μM seliciclib
From the text: as §1

[26] = test system: SCaBER; settings: SCaBER (Bladder), 15 μM seliciclib
From the text: as §1

[27] = test system: HPAC; settings: HPAC (Pancreas), 15 μM seliciclib
From the text: as §1

[28] = test system: KYSE-510; settings: KYSE-510 (Esophagus), 15 μM seliciclib
From the text: as §1

[29] = test system: KU-19-19; settings: KU-19-19 (Bladder), 15 μM seliciclib
From the text: as §1

[30] = test system: RT-112; settings: RT-112 (Bladder), 15 μM seliciclib
From the text: as §1

[31] = test system: BHY; settings: BHY (Head & Neck), 15 μM seliciclib
From the text: as §1

[32] = test system: LUDLU-1; settings: LUDLU-1 (Lung: NSCLC), 15 μM seliciclib
From the text: as §1

[33] = test system: NCI-H1793; settings: NCI-H1793 (Lung: NSCLC), 15 μM seliciclib
From the text: as §1

[34] = test system: Lu-135; settings: Lu-135 (Lung), 15 μM seliciclib
From the text: as §1

[35] = test system: PC-14; settings: PC-14 (Lung: NSCLC), 15 μM seliciclib
From the text: as §1

[36] = test system: T24; settings: T24 (Bladder), 15 μM seliciclib
From the text: as §1

[37] = test system: PCI-4A; settings: PCI-4A (Head & Neck), 15 μM seliciclib
From the text: as §1

## CC[C@H](CO)Nc1nc(NCc2ccccc2)c2ncn(C(C)C)c2n1 [seliciclib, roscovitine]
[1]
  Fractional Growth: 0.3914
[2]
  Fractional Growth: 0.3716
[3]
  Fractional Growth: 0.6379
[4]
  Fractional Growth: 0.6834
[5]
  Fractional Growth: 0.4149
[6]
  Fractional Growth: 0.6045
[7]
  Fractional Growth: 0.6205
[8]
  Fractional Growth: 0.6209
[9]
  Fractional Growth: 0.1937
[10]
  Fractional Growth: 0.3911
[11]
  Fractional Growth: 0.3767
[12]
  Fractional Growth: 0.6262
[13]
  Fractional Growth: 0.3765
[14]
  Fractional Growth: 0.4826
[15]
  Fractional Growth: 0.5754
[16]
  Fractional Growth: 0.674
[17]
  Fractional Growth: 0.3864
[18]
  Fractional Growth: 0.5218
[19]
  Fractional Growth: 0.3472
[20]
  Fractional Growth: 0.5818
[21]
  Fractional Growth: 0.1925
[22]
  Fractional Growth: 0.4337
[23]
  Fractional Growth: 0.1123
[24]
  Fractional Growth: 0.5067
[25]
  Fractional Growth: 0.4333
[26]
  Fractional Growth: 0.5642
[27]
  Fractional Growth: 0.7062
[28]
  Fractional Growth: 0.4141
[29]
  Fractional Growth: 0.3033
[30]
  Fractional Growth: 0.243
[31]
  Fractional Growth: 0.5602
[32]
  Fractional Growth: 0.7029
[33]
  Fractional Growth: 0.6274
[34]
  Fractional Growth: 0.2812
[35]
  Fractional Growth: 0.5776
[36]
  Fractional Growth: 0.5262
[37]
  Fractional Growth: 0.3628
